Experimental data as given in patent publication US20160090556A1, “PRODUCTS COMPRISING MALODOR REDUCTION MATERIALS” (The Procter & Gamble Company, priority 2014, published 2016).
Where “and” joins values, the source holds several entries; their conditions need not be identical. Equal entries are not always repeated. Where two headings read alike, the source gives them in different places.

Assays:
[1] = Fragrance Fidelity Index (FFI) assigned by perfumers/expert graders on fabric swatches; set-up: species or system human; key: FFI grade on reference scale anchored by 0, 1, 2, 3 swatches
Text: (§1) Blocker materials suitable for use in consumer products of the present invention are chosen for their ability to decrease malodor, while not interfering with perception of a fragrance. Material selection is done by assigning two indices to a test sample material from two reference scales in order to rank odor strengths. The two reference scales are the Fragrance Fidelity Index (FFI) scale and the Blocker Index (BI) scale. The FFI ranks the ability of the test sample material to impart a perceivable odor which could cause interference when combined with another fragrance and the BI ranks the ability of the test sample material to reduce malodor perception. The two methods for assigning the indices to a test sample on the FFI and the BI reference scales are given below.
(§2) The first step in the method for assigning an FFI to the test samples on the FFI reference scale is to create the FFI reference swatches. […] Fabric swatches for this test are white knit polycotton (4 inch×4 inch) swatches from EMC ordered as PC 50/50. The supplier is instructed to strip the swatches first, stripping involves washing twice with a fragrance-free detergent and rinsing three times.
Pipette 13 μL of each of the three solutions into the middle of a clean swatch resulting in about a 1 cm diameter of the solution in the middle of the swatch. This will create a sensory scale of three swatches with three different odor levels based on the concentration of the solution pipetted onto the swatch. After drying for 30 minutes in a vented hood, the swatches are wrapped in aluminum foil to prevent odor contamination to the treated swatch. A clean untreated swatch is also included as the lowest anchor point of reference for odor strength on the FFI scale. The FFI reference scale swatches should be used within 0.5 to 12 hours and discarded after 12 hours. The swatches are used as scale anchor points when graders evaluate a test sample(s) and are assigned a Fragrance Fidelity Index (FFI) as show in Table 7.
The perfumer/expert panel is asked to rank order swatches according to a scale between 0 and 3.
The reference swatches represent the 0, 1, 2, and 3 FFIs on the FFI reference scale, Table 9. The expert grader should familiarize them self with the strength of the odor on the FFI reference swatches by sniffing each one starting at 0 (the lowest odor strength) and ending at 3 (the highest odor strength). This should be done prior to evaluating the test sample material treated swatch.
A clean swatch is treated with 13 μL of a known concentration of a test sample material resulting in an about 1 cm of the solution on the clean swatch. Just like the reference swatches, the test sample material swatch is dried in a vented hood for 30 minutes and then wrapped in aluminum foil to prevent contamination. The test material swatches and the FFI reference swatches should be made within 2 hours of each other. The test material swatch must be used within 0.5 to 12 hours and discarded after 12 hours.
At least two perfumers/expert graders are used to assign an FFI grade to a test sample. The perfumer/expert grader smells the test sample swatch by holding that swatch 1 inch from their nose with their nose centered over the area where the test sample was pipetted on to the fabric and then assigns the test sample an FFI grade using the FFI reference scale anchor swatches as references. In cases where the test sample material is graded greater than 3, the test material is not a blocker material or the concentration of the material needs to be lowered and reevaluated to determine if a lower level has a malodor blocker functionality.

[2] = Blocker Index (BI) assigned by perfumers/expert graders on isovaleric acid swatches; set-up: species or system human; key: BI odor strength 0 (lowest, clean swatch) to 3 (highest)
Text: as §1
as §2, with “assigning a BI” for “assigning an FFI”, “to a” for “to the”, “test sample material” for “test samples”, “the BI” for “the FFI”
The BI scale contains one clean swatch with no malodor applied. […] These solutions are pipetted to the middle of the swatches. […] After drying for 30 minutes in a vented hood, the swatches are wrapped in aluminum foil to prevent odor contamination to the treated swatch. A clean untreated swatch is also included as the lowest anchor point of reference for malodor strength on the BI scale. The BI reference scale swatches should be used within 0.5 to 12 hours and discarded after 12 hours. The swatches are used as scale anchor points when graders evaluate a test sample(s) and are assigned a Blocker Index (BI) as show in Table 12.
The perfumer/expert grader is asked to rank order swatches according to a scale between 0 and 3.
The reference swatches represent the 0, 1, 2, and 3 BIs on the BI reference scale, Table 12. The expert grader should familiarizes him/herself with the strength of the odor on the BI reference swatches by sniffing each one starting at 0 (the lowest odor strength) and ending at 3 (the highest odor strength). This should be done prior to evaluating the swatch treated with the test material.
To evaluate the BI, the test material is applied to a malodorous swatch to determine how well the test material blocks the malodor. […] After drying the malodorous swatch a known concentration of test material solution, between 1 ppm and 100 ppm is pipetted onto the malodorous swatch. […] It is sometimes necessary to evaluate several levels of the test material between about 1 and about 100 ppm to determine the BI.
At least two perfumers/expert graders are used to assign the BI to the test sample. […] The test sample swatch is assigned a BI at or between numbers on the BI in table.

[3] = Liquid dish neat product liquid-air partition coefficient; format: physicochemical
[4] = Probability of Ingredient Color Instability; format: physicochemical; conditions: for Comment Code: Probability of Ingredient Color Instability: codes E/F of the Comment Code, Table 1
[5] = Conc 10 ppm test material on swatch
[6] = Conc 50 ppm test material on swatch
[7] = Conc 10 ppm test material on isovaleric acid swatch
[8] = Conc 50 ppm test material on isovaleric acid swatch
[9] = class code letter within Comment Code
[10] = codes K/L of the Comment Code, Table 1

| Structure (SMILES) | FFI [1, 5] | FFI [1, 6] | BI [2, 7] | BI [2, 8] | Log of liquid dish neat product liquid-air partition coefficient (Comment Code K/L) [3] | Probability of Ingredient Color Instability (Comment Code E/F) [4] | further results |
| --- | --- | --- | --- | --- | --- | --- | --- |
| O=C1CCC2CCCCC2O1 (stereo not drawn) [3,4,4a,5,6,7,8,8a-octahydrochromen-2-one] | 0 | 0 | 2.0 | 2.0 |  |  |  |
| CC(C)(C)C1CCCCC1 [4-tert-butyl cyclohexane] | 0 | 0.3 | 2.0 | 2.0 |  |  |  |
| CCCCCCCCCCCCCCCC(=O)OC [Material 109] |  |  | 2.0 |  |  |  | Log of liquid dish neat product liquid-air partition coefficient (Comment Code K/L) [3, 9]: K (Log of liquid dish neat product liquid-air partition coefficient greater than or equal to −7) |
| CCCCCCCCCCCCO [Material 174] |  | 0.5 |  | 2.3 |  |  |  |
| CC(=O)OCCCCCCC(C)C [Material 204] | 0 | 0 | 2.0 | 2.7 |  |  |  |
| CC1(C)CCc2ccc(CCC=O)cc21 [Material 261] | 0 | 1.3 | 1.8 | 1.3 |  |  | Log of liquid dish neat product liquid-air partition coefficient (Comment Code K/L) [3, 9]: K (Log of liquid dish neat product liquid-air partition coefficient greater than or equal to −7); Comment Code: Log of liquid dish neat product liquid-air partition coefficient ([3]; code letters K, L): K (Log of liquid dish neat product liquid-air partition coefficient greater than or equal to −7) |
| CC(=O)OC1CC2CC1C1CC=CC21 (stereo not drawn) [Material 281] | 0 | 0.5 | 2.0 | 2.0 |  |  | Log of liquid dish neat product liquid-air partition coefficient (Comment Code K/L) [3, 9]: K (Log of liquid dish neat product liquid-air partition coefficient greater than or equal to −7); Comment Code: Log of liquid dish neat product liquid-air partition coefficient ([3]; code letters K, L): K (Log of liquid dish neat product liquid-air partition coefficient greater than or equal to −7) |
| CCCCCCCCCCCC(=O)OCC [Material 391] |  | 0.3 |  | 2.2 |  |  | Log of liquid dish neat product liquid-air partition coefficient (Comment Code K/L) [3, 9]: K (Log of liquid dish neat product liquid-air partition coefficient greater than or equal to −7) |
| C=CC(C)=CCC=C(C)C [Material 524] |  | 0 |  | 2.8 |  |  |  |
| CCC(O)COC1CCCCC1C(C)(C)C (stereo not drawn) [Material 677] | 0 | 1.8 | 2.3 | 2.0 | K (Log of liquid dish neat product liquid-air partition coefficient greater than or equal to −7) |  |  |
| CC(C)(C=O)CC1=CCC2CC1C2(C)C (stereo not drawn) [Material 925] |  |  |  |  | K (Log of liquid dish neat product liquid-air partition coefficient greater than or equal to −7) | F (Probability of Ingredient Color Instability<71%) |  |
| CCCCCCCCCCC=CC=O [Material 930] |  |  |  |  | K (Log of liquid dish neat product liquid-air partition coefficient greater than or equal to −7) | F (Probability of Ingredient Color Instability<71%) |  |
| N#CC(=C1CCCCC1)c1ccccc1 [Material 945] |  |  |  |  | K (Log of liquid dish neat product liquid-air partition coefficient greater than or equal to −7) | F (Probability of Ingredient Color Instability<71%) |  |
| C=C(C)C1CC=C(COC(C)=O)CC1 (stereo not drawn) [Material 947] |  |  |  |  | K (Log of liquid dish neat product liquid-air partition coefficient greater than or equal to −7) | F (Probability of Ingredient Color Instability<71%) |  |
| CC(CCO)CCc1ccccc1 (stereo not drawn) [Material 962] | 0 | 0.5 | 2.3 | 1.7 |  |  |  |
| O=C(Oc1ccccc1)c1ccccc1 [Material 965] |  |  |  |  | K (Log of liquid dish neat product liquid-air partition coefficient greater than or equal to −7) | F (Probability of Ingredient Color Instability<71%) |  |
| CC(C)=CCCC1=CCC(C)(C=O)CC1 (stereo not drawn) [Material 988] |  |  |  |  | K (Log of liquid dish neat product liquid-air partition coefficient greater than or equal to −7) | F (Probability of Ingredient Color Instability<71%) |  |
| CCOC(=O)OC1C(C)CCC(C)C1C (stereo not drawn) [Material 1005] |  | 0.5 |  | 2.6 |  |  |  |
| CCCCCCC/C=C\CCC=O [Material 1045] |  |  |  |  | K (Log of liquid dish neat product liquid-air partition coefficient greater than or equal to −7) | F (Probability of Ingredient Color Instability<71%) |  |
| CCCCCC1C(=O)CCC1CC(=O)OC (stereo not drawn) [Material 1083] |  |  |  |  | K (Log of liquid dish neat product liquid-air partition coefficient greater than or equal to −7) | F (Probability of Ingredient Color Instability<71%) |  |
| CC(C=O)=CCC1C(C)=CCCC1(C)C (stereo not drawn) [Material 1116] |  |  |  |  |  |  | Comment Code: Probability of Ingredient Color Instability [4]: F (Probability of Ingredient Color Instability<71%); Comment Code: Log of liquid dish neat product liquid-air partition coefficient [3, 10]: K (Log of liquid dish neat product liquid-air partition coefficient greater than or equal to −7) |
| CC1CC(C)(c2ccccc2)OC(C)O1 (stereo not drawn) [Material 1126] |  |  |  |  |  |  | Comment Code: Probability of Ingredient Color Instability [4]: F (Probability of Ingredient Color Instability<71%); Comment Code: Log of liquid dish neat product liquid-air partition coefficient [3, 10]: K (Log of liquid dish neat product liquid-air partition coefficient greater than or equal to −7) |
| COC(=O)OC1CC/C=C\CCC1 (stereo not drawn) [Material 1139] | 0 | 1.0 | 2.0 | 2.7 |  |  |  |
| C=C1CCC2OC2(C)CCC2C1CC2(C)C (stereo not drawn) [Material 1148] |  | 0.5 |  | 2.3 |  |  | Comment Code: Log of liquid dish neat product liquid-air partition coefficient ([3]; code letters K, L): K (Log of liquid dish neat product liquid-air partition coefficient greater than or equal to −7); Comment Code: Log of liquid dish neat product liquid-air partition coefficient [3, 10]: K (Log of liquid dish neat product liquid-air partition coefficient greater than or equal to −7) |
| CCCCCCCCCCCO [Undecanol] |  | 0.8 |  | 2.3 |  |  |  |
| CC(C)CC(=O)O [isovaleric acid, reference compound] |  |  |  |  |  |  | BI grade of reference swatch, Ave ([2]; 2 μL 0.08%, all graders (Table 10)): 1.0; BI grade of reference swatch, individual Expert Grader ([2]; stripped swatch with 2 μL 0.08%): 0.5 and 1.0; BI grade of reference swatch, individual Expert Grader ([2]; stripped swatch with 5 μL 0.08%): 2.5; BI grade of reference swatch, individual Expert Grader ([2]; stripped swatch with 20 μL 0.08%): 2.5 |
